Target: acétylcholinestérase (Homo sapiens, UniProt P22303)
Assay: biochemical
Conditions: Inhibition de l'activité de l'acétylcholinestérase; read-out: IC₅₀
Excerpt: Les composés de l'invention ont été soumis à des essais pharmacologiques qui ont montré leur intérét en tant qu'inhibiteurs de l'acétylcholinestérase.

Sequence of acétylcholinestérase (P22303 32-614, species assumed): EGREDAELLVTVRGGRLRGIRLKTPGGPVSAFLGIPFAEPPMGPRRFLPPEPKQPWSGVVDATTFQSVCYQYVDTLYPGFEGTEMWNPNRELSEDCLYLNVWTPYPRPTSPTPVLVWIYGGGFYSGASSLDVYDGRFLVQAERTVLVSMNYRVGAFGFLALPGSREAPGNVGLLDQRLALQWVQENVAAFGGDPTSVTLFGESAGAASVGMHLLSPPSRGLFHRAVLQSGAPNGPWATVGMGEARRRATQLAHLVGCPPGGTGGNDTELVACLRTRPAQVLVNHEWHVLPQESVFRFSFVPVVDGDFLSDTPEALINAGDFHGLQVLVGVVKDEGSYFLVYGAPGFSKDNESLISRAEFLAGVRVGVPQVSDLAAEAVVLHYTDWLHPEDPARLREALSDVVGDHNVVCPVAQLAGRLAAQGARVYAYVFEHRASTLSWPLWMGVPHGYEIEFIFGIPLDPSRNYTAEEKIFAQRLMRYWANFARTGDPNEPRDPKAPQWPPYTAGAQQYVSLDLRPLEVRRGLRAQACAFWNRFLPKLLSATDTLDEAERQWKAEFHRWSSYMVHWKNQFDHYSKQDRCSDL

SMILES: O=C(NC(=S)NCCC1CCN(Cc2ccccc2)CC1)c1ccc2c(c1)OCO2 [compound 12]
- IC50: 0.018 µM

— patent EP0571511B1, “NOVEL UREAS AND THIOUREAS, PREPARATION THEREOF AND APPLICATION IN THERAPY” (priority 1991, dated 1992)
